# According to US11021454B2, “Type of aryl benzofuran amidated derivative and medical use thereof” (CHINA PHARMACEUTICAL UNIVERSITY, priority 2016, dated 2021):
# Marks after values point to notes of the source that are not given here.
# Legend:
# [1] = Hyperuricemia model induced by potassium oxonate in mice: serum uric acid; type: in vivo, Kunming mice; conditions: 2 h after administration, potassium oxonate 300 mg/kg
# Experimental: The effect of benzofuran amidated derivatives on blood uric acid in mice is evaluated by an animal model of hyperuricemia induced by potassium oxonate
# (1) Test animals: Kunming mice are provided by the Test Animals Center of Yangzhou University. Fasting is given 12 h before the drug administration and during the test period, and drinking water is not restricted during the experiment.
# The test drug is prepared with 0.5% sodium carboxymethylcellulose (CMC-Na) at a suitable concentration; the normal control group of mice are intraperitoneally injected with 0.5% sodium carboxymethylcellulose, and the other groups are injected intraperitoneally with potassium oxonate 300 mg/kg. 1 h later, the mice in the normal control group and the model group are intraperitoneally injected with 0.5% sodium carboxymethylcellulose, and the other groups are intraperitoneally injected with 10 mL/kg of the test drug. 2 hours after the drug administration, 500 μL of blood is taken from the eyeball, placed at room temperature for 1 h, centrifuged at 3000 rpm for 5 min, and the upper serum is stored at −4° C. The uric acid level in the serum of the mice is determined according to the method as specified the uric acid detection kit.
# [2] = tested on: LPS-stimulated macrophage RAW 264.7; assay: Scavenging of superoxide anion in LPS-stimulated macrophage RAW 264.7 (2-OH-E+ by LC-MS); type: cell-based; conditions: for Decrease of 2-OH-E+ (%): test drug 10 μM, 0.1 μg/mL LPS, 24 h, RAW 264.7; for scavenging effect on superoxide anion compared to the model group: LPS-stimulated RAW 264.7
# Experimental: The antioxidant activity (the ability to scavenge superoxide anion) of the synthesized benzofuran amidated derivative is evaluated by a cell model.
# After phagocytosis of bacteria, senescent denatured cells, immune complexes or oxidized low-density lipoproteins, mammalian macrophages cells enter a functional activation state, with enhanced intracellular lysosomal function and increased ROS levels, and they secrete and synthesize inflammatory cytokines. Lipopolysaccharide (LPS) is the main component of the cell wall of Gram-negative bacteria and is the main material basis for its pathogenesis; it can stimulate the production of monocytes/macrophages and release a large amount of reactive oxygen species (mainly including O2^− and H2O2), inflammatory factors such as nitric oxide (NO), IL-1β and Tumor necrosis factor-α (TNF-α) that are involved in the acute phase response of the body, causing inflammatory damage to the body. The present invention utilizes the LPS-stimulated macrophage model to evaluate the antioxidant activity of benzofuran amidated derivatives to scavenge superoxide anion at the cellular level.
# (2) LPS: accurately weigh the appropriate amount of LPS, and prepare a sample stock solution of 0.1 g/ml, with DMEM and store at −20° C. for later use.
# (3) Probe Stabilizer DTPA: Weigh accurately the amount of DTPA, prepare a 20 mM sample stock solution with DMSO, dilute to 100 µM with PB, and store at 4° C. for use.
# (4) HE: Prepare a 20 mmol/L stock solution by dissolving the probe with dimethyl sulfoxide under anaerobic and dark conditions, and store at −80° C. in the dark. Take it out before use, prepare a 10 μmol/L solution with DMEM, place it on ice and store it in the dark.
# (1) RAW 264.7 cells are cultured in Petri dishes (60 mm), 4 mL per dish, and incubated in a 5% CO2 incubator with saturated humidity at 37° C. The experiment is divided into blank group, model group and drug-administered group.
# (2) After 12 h of cell culture, the supernatant is discarded, and the test drug with a final concentration of 10 μM containing 0.1 μg/mL LPS medium is added, and two parallel holes are provided for each sample to be tested.
# (3) Continue to culture in a cell culture incubator for 24 h, the supernatant is discarded, the cells are washed with PBS, and added to DMEM medium containing the probe HE (10 μM) and cultured in the dark for 30 min.
# (4) The cells are then washed twice with ice-cold PBS/(100 μM) DTPA, then added 1 mL PBS/(100 μM) DTPA, before the cells are divided into two with a spatula (700 μL and 300 μL) and collected into EP tubes; then they are centrifuged at 13,000 rpm for 10 min at 4° C., the supernatant is removed, and the cell pellet are stored at −80° C. for future use.
# (2) Pretreatment of the sample to be tested: 500 μL acetonitrile is added to each EP tube, protected from light, sonicated (10 s, eight cycles, 100 W), and centrifuged at 12,000 g for 10 min at 4° C. The supernatant is transferred to a 1.5 mL EP tube and dried under vacuum for 1 h to obtain a red dried material; the sample is then re-dissolved with 100 μL of mass spectrometry water, and the internal standard substance galantamine is added to make the final concentration of the sample to be tested at 0.1 μM. The sample to be tested is then centrifuged at 13,000 rpm for 10 min at 4° C. and analyzed by LC-MS.
# [3] = DPPH free radical scavenging experiment (antioxidant activity); type: biochemical; conditions: average of three parallel experiments; 0.1 mM DPPH, 30 min in the dark, 517 nm
# Experimental: The antioxidant activity of the synthesized benzofuran amidated derivative is evaluated by DPPH free radical scavenging experiment.
# (1) Preparation of DPPH solution: accurately weigh the appropriate amount of DPPH, add MeOH and perform ultrasonic dissolution to prepare 10 mM stock solution, and store at −20° C. Dilute to 0.1 mM with MeOH before the experiment and store in the dark;
# Use MeOH to dilute to different concentrations ([…]) before the experiment.
# (§1) Data processing: Data is processed by using Excel analysis and half-inhibitory concentration (IC50) is calculated by using GraphPad Prism 6.0.2.
# xanthine oxidase = xanthine oxidase (Homo sapiens (Human), UniProt P47989); assay: Xanthine oxidase inhibitory activity (absorbance at 295 nm, xanthine substrate); type: biochemical; conditions: average of four parallel experiments
# Experimental: Determination of Xanthine Oxidase Inhibitory Activity of Aryl Benzofuran Amidated Derivatives and Reagents (Amino Derivatives)
# (2) XOD solution: Take 25 U/2.6 mL of XOD, dilute to 0.08 U/mL of XOD working solution with 75 mM PB solution, mix well with a pipette, store on ice for future use;
# (3) Substrate preparation: accurately weigh the appropriate amount of xanthine (XA) into 5 mL of 0.1 N NaOH solution, dissolve it ultrasonically, and add 95 mL of 75 mM PB solution to prepare a substrate mother liquor with a final concentration of 0.48 mM, perform vortex mixing for 1 min; it is to be freshly prepared before each experiment;
# Use DB to dilute to different concentrations ([…]) before the experiment, and the DMSO content is less than 0.1%.
# as §1
# Normal hepatocyte LO2 = assay: Inhibition of uric acid production in xanthine-modelled hepatocyte cell model; type: cell-based
# Experimental: The effect of benzofuran amidated derivatives on uric acid production is evaluated using a cell model.
# (2) Experimental procedure: Normal hepatocyte LO2 are inoculated in a 6-well plate (plate density 1×10^6 cells/mL), and cell experiments are performed after 4 hours of plating.
# (3) Pre-treatment of mass spectrometry: take 100 μL of the medium collected, add MeOH 400 μL, CHCl3 100 μL and H2O 300 μL, perform vortex mixing, and centrifuging at 20000 g for 10 min, then take the upper layer for concentration and dry.
# xanthine oxidase, sequence (P47989 whole entry, species assumed): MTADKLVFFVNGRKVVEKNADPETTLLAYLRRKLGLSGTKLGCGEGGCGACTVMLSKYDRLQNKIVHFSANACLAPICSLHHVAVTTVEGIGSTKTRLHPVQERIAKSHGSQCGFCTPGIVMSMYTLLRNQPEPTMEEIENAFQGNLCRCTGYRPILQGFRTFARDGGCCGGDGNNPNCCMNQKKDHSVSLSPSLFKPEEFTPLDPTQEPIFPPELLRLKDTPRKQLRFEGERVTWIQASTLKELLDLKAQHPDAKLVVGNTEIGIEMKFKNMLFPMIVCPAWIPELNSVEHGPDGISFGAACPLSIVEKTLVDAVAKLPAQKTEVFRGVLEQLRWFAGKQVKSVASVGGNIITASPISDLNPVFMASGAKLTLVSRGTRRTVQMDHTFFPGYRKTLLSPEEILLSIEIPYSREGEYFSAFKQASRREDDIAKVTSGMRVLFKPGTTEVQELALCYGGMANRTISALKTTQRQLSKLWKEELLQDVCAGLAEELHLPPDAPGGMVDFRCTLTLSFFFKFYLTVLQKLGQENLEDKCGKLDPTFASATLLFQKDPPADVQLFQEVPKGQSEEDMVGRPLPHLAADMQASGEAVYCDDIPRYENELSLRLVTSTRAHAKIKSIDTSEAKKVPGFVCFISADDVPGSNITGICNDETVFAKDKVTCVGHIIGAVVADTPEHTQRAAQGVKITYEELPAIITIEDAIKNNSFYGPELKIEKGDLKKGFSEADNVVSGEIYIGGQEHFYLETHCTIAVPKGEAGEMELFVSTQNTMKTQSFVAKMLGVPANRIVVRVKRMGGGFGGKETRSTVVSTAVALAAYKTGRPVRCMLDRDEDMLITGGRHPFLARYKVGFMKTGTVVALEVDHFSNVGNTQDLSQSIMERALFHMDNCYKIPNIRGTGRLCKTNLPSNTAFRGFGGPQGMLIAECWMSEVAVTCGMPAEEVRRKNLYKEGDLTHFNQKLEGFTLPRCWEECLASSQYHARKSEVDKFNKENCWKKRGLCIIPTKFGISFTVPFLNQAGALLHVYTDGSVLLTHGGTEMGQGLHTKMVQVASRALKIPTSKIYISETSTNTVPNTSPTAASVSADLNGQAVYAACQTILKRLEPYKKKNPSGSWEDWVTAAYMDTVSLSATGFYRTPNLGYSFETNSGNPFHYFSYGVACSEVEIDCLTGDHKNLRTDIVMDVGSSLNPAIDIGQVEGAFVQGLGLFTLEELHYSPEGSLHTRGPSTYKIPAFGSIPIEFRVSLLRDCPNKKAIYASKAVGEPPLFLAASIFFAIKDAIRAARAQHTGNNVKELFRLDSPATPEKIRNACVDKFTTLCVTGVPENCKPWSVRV
SMILES,Decrease of 2-OH-E+ (%) [2],IC50 (xanthine oxidase),further results
"Oc1ncnc2[nH]ncc12 [Allopurinol, reference compound]",,,Serum uric acid value ([1]; 20 mg/kg intraperitoneal): 3.18 ± 0.50 mg/dL
"COC(=O)[C@H](Cc1ccc(O)c(O)c1)NC(=O)/C=C/c1ccc(O)c2oc(-c3ccc(O)c(O)c3)cc12 [Compound 5a, Methyl (S,E)-3-(3,4-dihydroxyphenyl)-2-(3-(2-(3,4-dihydroxyphenyl)-7-hydroxybenzofuran-4-yl)acrylamido)propanoate]",78.59%,,
COC(=O)[C@@H](Cc1ccc(O)c(O)c1)NC(=O)/C=C/c1ccc(O)c2oc(-c3ccc(O)c(O)c3)cc12 [Compound 5b],74.16%,,Serum uric acid value (mg/dl) ([1]; 20 mg/kg intraperitoneal): 3.87 ± 0.31*^a mg/dl; Serum uric acid value ([1]; 40 mg/kg intraperitoneal): 3.61 ± 0.25 mg/dL; Serum uric acid value ([1]; 80 mg/kg intraperitoneal): 3.30 ± 0.46 mg/dL
"COC(=O)[C@H](C)NC(=O)/C=C/c1ccc(O)c2oc(-c3ccc(O)c(O)c3)cc12 [Compound 5c, Methyl (E)-(3-(2-(3,4-dihydroxyphenyl)-7-hydroxybenzofuran-4-yl)acryloyl)-L-alaninate]",60.54%,,
"O=C(/C=C/c1ccc(O)c2oc(-c3ccc(O)c(O)c3)cc12)N[C@H](Cc1ccc(O)c(O)c1)C(=O)O [Compound 6b, (R,E)-3-(3,4-dihydroxyphenyl)-2-(3-(2-(3,4-dihydroxyphenyl)-7-hydroxybenzofuran-4-yl)acrylamido) propanoic Acid]",80.81%,,
"C[C@H](NC(=O)/C=C/c1ccc(O)c2oc(-c3ccc(O)c(O)c3)cc12)C(=O)O [Compound 6c, (E)-(3-(2-(3,4-dihydroxyphenyl)-7-hydroxybenzofuran-4-yl)acryloyl)-L-alanine]",41.65%,,scavenging effect on superoxide anion compared to the model group [2]: obvious scavenging effect
"O=C(/C=C/c1ccc(O)c2oc(-c3ccc(O)c(O)c3)cc12)N[C@@H](Cc1ccccc1)C(=O)O [Compound 6d, (E)-(3-(2-(3,4-dihydroxyphenyl)-7-hydroxybenzofuran-4-yl)acryloyl)-L-phenylalanine]",81.27%,,
"O=C(/C=C/c1ccc(O)c2oc(-c3ccc(O)c(O)c3)cc12)N[C@@H](Cc1ccc(O)cc1)C(=O)O [Compound 6e, (E)-(3-(2-(3,4-dihydroxyphenyl)-7-hydroxybenzofuran-4-yl)acryloyl)-L-tyrosine]",83.41%,,Serum uric acid value ([1]; 20 mg/kg intraperitoneal): 3.82 ± 0.62 mg/dL; Serum uric acid value ([1]; 40 mg/kg intraperitoneal): 3.54 ± 0.26 mg/dL; Serum uric acid value ([1]; 80 mg/kg intraperitoneal): 3.26 ± 0.44 mg/dL
"COC(=O)[C@@H](Cc1ccc(OC)c(OC)c1)OC(=O)/C=C/c1ccc(OC)c2oc(-c3ccc(OC)c(OC)c3)cc12 [Compound 7, (2R)-3-(3,4-dimethoxyphenyl)-1-methoxy-1-oxopropan-2-yl (2E)-3-[2-(3,4-dimethoxyphenyl)-7-methoxy-1-benzofuran-4-yl]prop-2-enoate]",,> 60 µM,IC50 [3]: > 100 µM
N[C@H](Cc1ccc(O)c(O)c1)C(=O)O [D-dopa],,> 60 µM,
Cc1nc(-c2ccc(OCC(C)C)c(C#N)c2)sc1C(=O)O [Febuxostat],,,"inhibition at 5 µM (Normal hepatocyte LO2; Homo sapiens, L02, 5 μM, LO2 cells, 10 μM xanthine, 24 h, read-out: Inhibition rate (%) of uric acid): 78.7%"
C[C@H](N)C(=O)O [L-ala],,> 60 µM,
N[C@@H](CS)C(=O)O [L-cys],,> 60 µM,
N[C@@H](Cc1ccc(O)c(O)c1)C(=O)O [L-dopa],,> 60 µM,
CSCC[C@H](N)C(=O)O [L-met],,> 60 µM,
N[C@@H](Cc1ccccc1)C(=O)O [L-phe],,> 60 µM,
N[C@@H](Cc1c[nH]c2ccccc12)C(=O)O [L-trp],,> 60 µM,
N[C@@H](Cc1ccc(O)cc1)C(=O)O [L-tyr],,> 60 µM,
"O=C(/C=C/c1ccc(O)c2oc(-c3ccc(O)c(O)c3)cc12)O[C@H](Cc1ccc(O)c(O)c1)C(=O)O [Salvianolic acid C, reference compound]",37.82%,8.26 µM,"IC50 [3]: 6.87 µM; Inhibition rate (%) of uric acid (Normal hepatocyte LO2; 10 μM, LO2 cells, 10 μM xanthine, 24 h): 15.2%; Inhibition rate (%) of uric acid (Normal hepatocyte LO2; 30 μM, LO2 cells, 10 μM xanthine, 24 h): 24.7%; Inhibition rate (%) of uric acid (Normal hepatocyte LO2; 50 μM, LO2 cells, 10 μM xanthine, 24 h): 31.4%; inhibitory effect on the formation of uric acid in hepatocyte model (Normal hepatocyte LO2; xanthine modeling): significant inhibitory effect; scavenging effect on superoxide anion compared to the model group [2]: obvious scavenging effect"
"Cc1c(C)c2c(c(C)c1O)CC[C@@](C)(CCC[C@H](C)CCC[C@H](C)CCCC(C)C)O2 [Ve, vitamin E, reference compound]",53.18%,,
